# Test results published in patent US12187672B2, “1,2-diacylglycerol compound, preparation method therefor, and immunomodulator containing same as active ingredient” (ENZYCHEM LIFESCIENCES CORPORATION, priority 2018, dated 2025).
# Several values for one entry are separate records, joined by “and”; a condition that tells them apart may be missing. Equal values may be shown once.
# What was measured:
# STAT6 = assay: IL-4-induced STAT6 activity, pGL4-STAT6 luciferase reporter in A549 cells; assay type: cell-based; conditions: sample 100 μg/ml 1 h
# Summary of the method: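 A549 cells transiently transfected with pGL4-STAT6 reporter (24 h), pretreated with compound 1 h, then stimulated with IL-4 (2 ng/ml or 10 ng/ml) for 20 h. Cells lysed and luciferase luminescence read as STAT6 activity.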
# IL-4 = assay: PKC activator-induced IL-4 secretion reduction in EL-4 cells (ELISA); assay type: cell-based, mouse; conditions: for IL-4 concentration (average ± deviation): sample 100 μg/ml 2 h, then PKC activator 18 h; for decrease of IL-4 secretion/expression: PKC activator-treated, 100 μg/ml
# Summary of the method: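 Mouse EL-4 lymphoma cells in DMEM/10% FBS pretreated 2 h with compound, then stimulated with 0.5 μg/ml PKC activator (PMA type) for 18 h at 37 °C. Secreted IL-4 in supernatant quantified by sandwich ELISA (OD 450 nm) and expressed as reduction rate.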
# [1] = tested on: Aeruginosa K (PAK) of the genus Psuedomonas; assay: Infection inhibition test in mouse model of lung infection with bacteria (CFU in BALF); assay type: in vivo, Balb/c mice; conditions: 250 mg/kg oral
# Experimental: For getting mice model whose lung are infected with bacteria, 12-week old Balb/c male mice were purchased from Koatech Corporation (South Korea) and maintained in certain pathogen-free facilities under moderate temperature and lights cycles. For obtain bacteria to induce lung infection, Aeruginosa K (PAK) of the genus Psuedomonas was incubated in LB broth or LB agar plate overnight at 37° C., and then the culture solution was centrifuged at 13,000×g for 2 minutes to obtain a bacterial pellet. Thereafter, the bacterial pellet was suspended in phosphate buffered saline (PBS), and the optical density of the serial dilution was measured and plated on an agar plate, so that bacterial inoculum having a colony forming unit (CFU) was obtained. A bacterial inoculum solution for infection was prepared at a concentration of 1×10^5 CFU per 20 μl, and the prepared PAK bacterial inoculum (1×10^5 CFU per mouse in 20 μl PBS) was administered to a total of 8 12-week-old Balb/c mice by nasal injection. Four of the PAK-administered groups were orally administered the compound of the present invention (EC_A21) at 250 mg/kg, and PBS was administered to the control group. After 4 hours, samples of bronchoalveolar lavage fluid (BALF) from P. aeruginosa-infected mice were collected, and the collected BALF samples were diluted 1:1000 with PBS. The diluted samples were plated on LB agar and then incubated overnight at 37° C. CFU levels in BALF were confirmed by measuring the number of surviving bacteria by a plate count method. The results are shown in Table 8, FIG. 7 and FIG. 8 below.
# STAT3 = assay: IL-6-induced STAT3 activity, SEAP expression in HEK-Blue IL-6 cells; assay type: cell-based; conditions: HEK-Blue IL-6 cells; for STAT3 activity_SEAP expression(%) (average ± deviation): sample 100 μg/ml 1 h, then IL-6 5 ng/ml 24 h, negative control = 100
# Summary of the method: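 HEK-Blue IL-6 reporter cells at 1×10^5 cells/ml in DMEM with 10% FBS were exposed to compound for 1 h, then IL-6 (5 ng/ml) for 24 h at 37 °C. STAT3-driven SEAP in supernatant was detected with Quanti-Blue (1:10, ~30 min, 37 °C) at 650 nm.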
# [2] = then IL-4 (10 ng/ml) 20 h, Table 10
# [3] = then IL-4 (2 ng/ml) 20 h, Table 9
Structure (SMILES),STAT6 activity_Luciferase activity (average ± deviation) (STAT6; [2]),IL-4 concentration (average ± deviation) (IL-4; Table 12),decrease of IL-4 secretion/expression (IL-4),further results
CCCCC/C=C\C/C=C\CCCCCCCC(=O)OC(COC(=O)CCCCCC)COC(=O)CCCCCCCCCCCCCCC (stereo not drawn) [EC_A83],18788.2 ± 2805.4,637.9 ± 14.1 pg/µL,–,–
CCCCC/C=C\C/C=C\CCCCCCCC(=O)OC(COC(=O)CCCC)COC(=O)CCCCCCCCCCC (stereo not drawn) [EC_A93],15562.5 ± 900.7,507.9 ± 3.85 pg/µL,about 20%,–
CCCCC/C=C\C/C=C\CCCCCCCC(=O)OC(COC(=O)CCCC)COC(=O)CCCCCCCCC (stereo not drawn) [EC_A99],17407.0 ± 1347.6,553.3 ± 39.8 pg/µL,–,–
CCCCC/C=C\C/C=C\CCCCCCCC(=O)OC(COC(=O)CCCCCCCCCCC)COC(=O)C(C)CC (stereo not drawn) [EC_A96],14593.2 ± 2168.7,582.9 ± 17.3 pg/µL,–,–
CCCCC/C=C\C/C=C\CCCCCCCC(=O)OC(COC(=O)CCC)COC(=O)CCCCCCC (stereo not drawn) [EC_A85],19878.2 ± 4338.5,485.1 ± 19.2 pg/µL,about 20%,–
CCCCC/C=C\C/C=C\CCCCCCCC(=O)OC(COC(=O)CCCCCCCCC)COC(=O)C(C)CC (stereo not drawn) [EC_A102],18719.2 ± 2558.5,775.1 ± 11.5 pg/µL,–,–
CCCCC/C=C\C/C=C\CCCCCCCC(=O)OC(COC(=O)CC)COC(=O)CCCCCCC (stereo not drawn) [EC_A87],17258.7 ± 3007.1,511.0 ± 0.6 pg/µL,about 20%,–
CCCCC/C=C\C/C=C\CCCCCCCC(=O)OC(COC(=O)CC)COC(=O)CCCCCCCCC (stereo not drawn) [EC_A97],16787.0 ± 4102.6,541.5 ± 20.5 pg/µL,–,–
CCCCC/C=C\C/C=C\CCCCCCCC(=O)OC(COC(=O)CCCCCCCCCCCCCCC)COC(=O)C1CC1 (stereo not drawn) [EC_A79],20037.7 ± 786.0,527 ± 17.9 pg/µL,–,–
CCCCC/C=C\C/C=C\CCCCCCCC(=O)OC(COC(=O)CCC)COC(=O)CCCCCCCCCCC (stereo not drawn) [EC_A92],17237.2 ± 317.7,498.3 ± 45.6 pg/µL,about 20%,–
CCCCC/C=C\C/C=C\CCCCCCCC(=O)OC(COC(=O)CC)COC(=O)CCCCCCCCCCCCCCC (stereo not drawn) [EC_A78],19208.7 ± 2129.6,557 ± 11.5 pg/µL,–,–
CCCCC/C=C\C/C=C\CCCCCCCC(=O)OC(COC(=O)CCCCCCCCC)COC(=O)C(C)(C)C (stereo not drawn) [EC_A101],19438.7 ± 580.2,634.7 ± 3.21 pg/µL,–,–
CCCCC/C=C\C/C=C\CCCCCCCC(=O)OC(COC(=O)CCC)COC(=O)CCCCCCCCC (stereo not drawn) [EC_A98],14727.2 ± 129.2,584.2 ± 50.1 pg/µL,–,–
CCCCCC=CCC=CCCCCCCCC(=O)OC(COC(=O)CCCCCCC)COC(=O)C(C)(C)C (stereo not drawn) [EC_A89],18635.5 ± 846.4,620.1 ± 22.4 pg/µL,–,–
CCCCC/C=C\C/C=C\CCCCCCCC(=O)OC(COC(=O)CCCC)COC(=O)CCCCCCC (stereo not drawn) [EC_A86],18158.0 ± 3182.4,476.0 ± 2.5 pg/µL,about 20%,–
CCCCC/C=C\C/C=C\CCCCCCCC(=O)OC(COC(=O)CC)COC(=O)CCCCCCCCCCC (stereo not drawn) [EC_A91],22036.0 ± 4089.4,446.0 ± 16.7 pg/µL,about 20%,–
CCCCC/C=C\C/C=C\CCCCCCCC(=O)OC(COC(=O)CCCCCCCCCCCCCCC)COC(C)C (stereo not drawn) [EC_A21],–,–,–,"STAT6 activity_Luciferase activity (average ± deviation) (STAT6; [3]): 880.0 ± 50.0; bacterial CFU in BALF, average ± deviation ([1]; PAK 1×10^5 CFU nasal, BALF after 4 hours, 4 Balb/c mice): 14.0 ± 6.0 10^3 CFU/ml; bacterial CFU in BALF, individual mouse ([1]; PAK 1×10^5 CFU nasal, BALF after 4 hours, Balb/c mice, 250 mg/kg): 8.0 10^3 CFU/ml and 19.0 10^3 CFU/ml and 20.0 10^3 CFU/ml and 14.0 10^3 CFU/ml; bacterial CFU in BALF versus PAK alone group (in words) ([1]; fourth hour after PAK administration): significantly lower than that of the PAK alone group; IL-4 concentration (average ± deviation) (IL-4; Table 11): 488.8 ± 46.2 pg/µL; STAT3 activity_SEAP expression(%) (average ± deviation) (STAT3): 224.1 ± 22.4%"
CCCCC/C=C\C/C=C\CCCCCCCC(=O)OC(COC(=O)CCCCCCCCC)COC(=O)C(C)C (stereo not drawn) [EC_A100],14212.0 ± 1008.8,539.7 ± 6.4 pg/µL,–,–
CCCCC/C=C\C/C=C\CCCCCCCC(=O)OC(COC(=O)CCCCCCC)COC(=O)C(C)C (stereo not drawn) [EC_A88],17409.5 ± 1849.8,654.7 ± 0.6 pg/µL,–,–
"CCCCC/C=C\C/C=C\CCCCCCCC(=O)OC(COC(C)=O)COC(=O)CCCCCCCCCCCCCCC (stereo not drawn) [EC-18, 1-palmitoyl-2-linoleoyl-3-acetylglycerol, reference compound]",18878.0 ± 500.8,429.2 ± 7.0 pg/µL,–,STAT6 activity_Luciferase activity (average ± deviation) (STAT6; [3]): 462.5 ± 161.7; IL-4 concentration (average ± deviation) (IL-4; Table 11): 662.4 ± 42.4 pg/µL; decrease of STAT3 activity compared to the IL-6 cytokine-treated group (STAT3; 100 μg/ml): about 25%; STAT3 activity_SEAP expression(%) (average ± deviation) (STAT3): 173.0 ± 7.9%
